How the values were obtained:
[1] = tested on: human colon cancer cells (ATCC CCL220); test: Cytotoxicity assay (MTS/PMS growth inhibition); format: cell-based; conditions: approximately 48 hours with test compound, MTS/PMS readout, concentration not given
Method: The antitumor activity against human colon cancer cells of the novel compounds (as earlier reported) was realized by the following procedure which determines the inhibitory effect of test samples on the growth of human colon cancer cells (ATCC CCL220). The CCL220 cells are grown in RPMI 1640 media+10% Fetal bovine serum+1% Antibiotic/Antimycotic for approximately 48 hours at 37° C./5% CO2 in the presence of the test compound.
Growth/Non-Growth of the cells (e.g., cell density) is determined using Promega's MTS/PMS assay system. MTS (3-(4,5-dimethylthiazol-2-yl)-5-(3-carboxymethoxyphenyl)-2-(4-sulfophenyl)-2H-tetrazolium, inner salt) is an aqueous compound that is reduced to soluble formazan by the presence of NADH formed by dehydrogenases present within the CCL220 cells. The absorbance of the formazan can be measured at 490 nm and is directly proportional to the number of living cells present in the culture. PMS (Phenazine Methosulfate) is added an electron coupling reagent and greatly increases the rate of reduction. […]
In order to establish the accuracy of this assay a Positive Control consisting of 50 μM Methotrexate should not decrease the net absorbance to less than 90% of the Negative Control (CCL220 cells are somewhat resistant to methotrexate) is utilized.

white mice = test: Animal toxicity bioassay (acute toxicity, intraperitoneal); format: in vivo; conditions: 14 days observation, Litchfield and Wilkinson
Method: Acute toxicity was studied on white mice of both sexes with weight ranging between 18-26 grams under intraperitoneal injection of 2% solution of tested compound in starch (the compound was dissolved in starch slime and injected) on the basis of 0.1 ml of solution per 10 g of the animal weight Each dose was tested on the group of 6 animals that were observed during 14 days period. (This method was approved by the Pharmacology committee of Russian Ministry of Health and has been widely used since 1968.) Averaged lethal dose (LD50) of the compound was computed using results of experiments on 5-7 groups of animals using method of Litchfield and Wilkinson. (Belenkii M. L. “Elements of quantative determination of the pharmacological effect,” Leningrad, 1963, 71 pages).

Mice = conditions: cited from earlier work
[2] = Solubility in organic solvents; format: physicochemical
Stability in solution = format: physicochemical; conditions: decomposes quickly when solution is heated or stored for a long time, forming OF-12

Row | Compound | percent activity against human colon cancer [1] | LD50 (white mice) | IPN-Mice LD50 (Mice) | Solubility ([2]; DMSO, DMFA, dichloroethane, acetonitrile) | Solubility ([2]; hexane) | Stability in solutions (Stability in solution)
1 | CCOc1ccc(C(Cl)=CC(=NN=C2c3ccccc3-c3ccccc32)C(=O)OC)cc1 [3F-19, 4-Chloro-4-(4-ethoxy-phenyl)-2-(fluoren-9-ylidene-hydrazono)-but-3-enoic acid methyl ester] | 100% | > 200 mg/kg | – | – | – | –
2 | O=c1[nH]cc(F)c(=O)[nH]1 [5-FU, fluorouracil] | – | – | 230 mg/kg | – | – | –
3 | CCOc1ccc(C(=O)CC(O)(NN=C2c3ccccc3-c3ccccc32)C(=O)OC)cc1 (centres unmarked) [OF-13, 4-(4-Ethoxy-phenyl)-2-(N′-fluoren-9-ylidene-hydrazino)-2-hydroxy-4-oxo-butyric acid methyl ester] | 100% | > 1500 mg/kg | – | highly soluble | insoluble | not stable in solutions

From patent publication US6858748B1, “Treatment of colon cancer” (Research Foundation of the University of Central Florida, priority 2001, dated 2005)
